In US8962651B2, “Compounds for the treatment of hepatitis C” (Bristol-Myers Squibb Company, priority 2013, dated 2015):

The compounds below were run on genotype 1b (Con-1) HCV replicon (assay: HCV replicon luciferase assay). Conditions: 1b replicon, Huh-7 cells, Renilla luciferase, 3 days incubation.
Type: cell-based
Experimental: The cell lines used to evaluate compounds consist of a human hepatocyte derived cell line (Huh-7) that constitutively expresses a genotype 1b (Con-1) HCV replicon or a genotype 1b (Con-1) HCV replicon with an asparagine replacing the cysteine at amino acid 316, or a genotype 2a (JFH-1) replicon, containing a Renilla luciferase reporter gene. These cells were maintained in Dulbecco's modified Eagle medium (DMEM) containing 10% FBS, 100 U/mL penicillin/streptomycin and 1.0 mg/mL G418.
After 3 days incubation at 37° C., cells were analyzed for Renilla Luciferase activity using the EnduRen substrate (Promega cat #E6485) according to the manufacturer's directions. Briefly, the EnduRen substrate was diluted in DMEM and then added to the plates to a final concentration of 7.5 μM. The plates were incubated for at least 1 h at 37° C. then read on a Viewlux Imager (PerkinElmer) using a luminescence program.
`CCC(C)c1nc2oc(-c3ccc(F)cc3)c(C(=O)NC)c2cc1-c1cccc(C(=O)NC(C)(C)c2ncon2)c1` (stereo not shown) [Example 15, 5-(3-((2-(1,2,4-oxadiazol-3-yl)propan-2-yl)carbamoyl)phenyl)-6-(sec-butyl)-2-(4-fluorophenyl)-N-methylfuro[2,3-b]pyridine-3-carboxamide] showed an EC50 of 4.98 nM. With `CCC(C)c1nc2oc(-c3ccc(F)cc3)c(C(=O)NC)c2cc1-c1cccc(C(=O)NC(C)(C)c2ncon2)c1` (stereo not shown) [Example 16, 5-(3-((2-(1,2,4-oxadiazol-3-yl)propan-2-yl)carbamoyl)phenyl)-6-(sec-butyl)-2-(4-fluorophenyl)-N-methylfuro[2,3-b]pyridine-3-carboxamide] the EC50 was 20 nM.

Same assay, conditions: Hepatitis C virus, Huh-7, 72 h, 1b replicon, Huh-7 cells, Renilla luciferase, 3 days incubation
In the case of `CNC(=O)c1c(-c2ccc(F)cc2)oc2nc(CCC(F)(F)F)c(-c3cccc(C(=O)NC(C)(C)c4ncon4)c3)cc12` [Example 1, 5-(3-((2-(1,2,4-oxadiazol-3-yl)propan-2-yl)carbamoyl)phenyl)-2-(4-fluorophenyl)-N-methyl-6-(3,3,3-trifluoropropyl)furo[2,3-b]pyridine-3-carboxamide], the EC50 is reported as 3.02 nM. For `CNC(=O)c1c(-c2ccc(F)cc2)oc2nc(NCC(F)(F)F)c(-c3cccc(C(=O)NC4(c5ncon5)CCC4)c3)cc12` [Example 5, 5-(3-((1-(1,2,4-oxadiazol-3-yl)cyclobutyl)carbamoyl)phenyl)-2-(4-fluorophenyl)-N-methyl-6-((2,2,2-trifluoroethyl)amino)furo[2,3-b]pyridine-3-carboxamide], the EC50 was 4.96 nM. `CNC(=O)c1c(-c2ccc(F)cc2)oc2nc(NCC(F)(F)F)c(-c3cccc(C(=O)NC4(c5noc(C)n5)CC4)c3)cc12` [Example 6, 2-(4-fluorophenyl)-N-methyl-5-(3-((1-(5-methyl-1,2,4-oxadiazol-3-yl)cyclopropyl)carbamoyl)phenyl)-6-((2,2,2-trifluoroethyl)amino)furo[2,3-b]pyridine-3-carboxamide] was tested, and the EC50 was 4.76 nM. Compound `CNC(=O)c1c(-c2ccc(F)cc2)oc2nc(NCC(F)(F)F)c(-c3cccc(C(=O)NC(C)(C)c4nc(C)no4)c3)cc12` [Example 7, 2-(4-fluorophenyl)-N-methyl-5-(3-((2-(3-methyl-1,2,4-oxadiazol-5-yl)propan-2-yl)carbamoyl)phenyl)-6-((2,2,2-trifluoroethyl)amino)furo[2,3-b]pyridine-3-carboxamide] has an EC50 of 3.46 nM. For `CNC(=O)c1c(-c2ccc(F)cc2)oc2nc(NCC(F)(F)F)c(-c3cccc(C(=O)NC4(c5nc(C)no5)CC4)c3)cc12` [Example 8, 2-(4-fluorophenyl)-N-methyl-5-(3-((1-(3-methyl-1,2,4-oxadiazol-5-yl)cyclopropyl)carbamoyl)phenyl)-6-((2,2,2-trifluoroethyl)amino)furo[2,3-b]pyridine-3-carboxamide], the EC50 was 5.6 nM. With `CNC(=O)c1c(-c2ccc(F)cc2)oc2nc(CCC(F)(F)F)c(-c3cccc(C(=O)NC(C)(C)c4noc(C)n4)c3)cc12` [Example 10, 2-(4-fluorophenyl)-N-methyl-5-(3-((2-(5-methyl-1,2,4-oxadiazol-3-yl)propan-2-yl)carbamoyl)phenyl)-6-(3,3,3-trifluoropropyl)furo[2,3-b]pyridine-3-carboxamide] the EC50 was 3.61 nM. In the case of `CNC(=O)c1c(-c2ccc(F)cc2)oc2nc(NCC(F)(F)F)c(-c3cccc(C(=O)NC(C)(C)c4noc(C)n4)c3)cc12` [Example 11, 2-(4-fluorophenyl)-N-methyl-5-(3-((2-(5-methyl-1,2,4-oxadiazol-3-yl)propan-2-yl)carbamoyl)phenyl)-6-((2,2,2-trifluoroethyl)amino)furo[2,3-b]pyridine-3-carboxamide], the EC50 is reported as 4.96 nM. `CNC(=O)c1c(-c2ccc(F)cc2)oc2nc(NCC(F)(F)F)c(-c3cccc(C(=O)NC(C)(C)c4ncon4)c3)cc12` [Example 12, 5-(3-((2-(1,2,4-oxadiazol-3-yl)propan-2-yl)carbamoyl)phenyl)-2-(4-fluorophenyl)-N-methyl-6-((2,2,2-trifluoroethyl)amino)furo[2,3-b]pyridine-3-carboxamide] showed an EC50 of 2.95 nM. `CNC(=O)c1c(-c2ccc(F)cc2)oc2nc(NCC(F)(F)F)c(-c3ccc(OC)c(C(=O)NC(C)(C)c4ncon4)c3)cc12` [Example 14, 5-(3-((2-(1,2,4-oxadiazol-3-yl)propan-2-yl)carbamoyl)-4-methoxyphenyl)-2-(4-fluorophenyl)-N-methyl-6-((2,2,2-trifluoroethyl)amino)furo[2,3-b]pyridine-3-carboxamide] was tested, and the EC50 was 6.67 nM. Compound `[2H]C([2H])([2H])Oc1ncc(-c2cc3c(C(=O)NC)c(-c4ccc(F)cc4)oc3nc2NCC(F)(F)F)cc1C(=O)NC(c1ncon1)(C([2H])([2H])[2H])C([2H])([2H])[2H]` [Example 18, 5-[2-(4-fluorophenyl)-3-(methylcarbamoyl)-6-[(2,2,2-trifluoroethyl)amino]furo[2,3-b]pyridin-5-yl]-2-(^2H3)methoxy-N-[2-(1,2,4-oxadiazol-3-yl)(^2H6)propan-2-yl]pyridine-3-carboxamide] has an EC50 of 4.32 nM. For `[2H]c1nc(C(NC(=O)c2cc(-c3cc4c(C(=O)NC)c(-c5ccc(F)cc5)oc4nc3NCC(F)(F)F)cnc2OC([2H])([2H])[2H])(C([2H])([2H])[2H])C([2H])([2H])[2H])no1` [Example 19, 5-[2-(4-fluorophenyl)-3-(methylcarbamoyl)-6-[(2,2,2-trifluoroethyl)amino]furo[2,3-b]pyridin-5-yl]-2-(^2H3)methoxy-N-{2-[(^2H)-1,2,4-oxadiazol-3-yl](^2H6)propan-2-yl}pyridine-3-carboxamide], the EC50 was 5.77 nM. For `[2H]C([2H])([2H])Oc1ncc(-c2cc3c(C(=O)NC)c(-c4ccc(F)cc4)oc3nc2OCC(F)(F)F)cc1C(=O)NC(c1ncon1)(C([2H])([2H])[2H])C([2H])([2H])[2H]` [Example 21, 5-[2-(4-fluorophenyl)-3-(methylcarbamoyl)-6-(2,2,2-trifluoroethoxy)furo[2,3-b]pyridin-5-yl]-2-(^2H3)methoxy-N-[2-(1,2,4-oxadiazol-3-yl)(^2H6)propan-2-yl]pyridine-3-carboxamide], the EC50 was 2.23 nM. `[2H]C([2H])([2H])Oc1ncc(-c2cc3c(C(=O)NC)c(-c4ccc(F)cc4)oc3nc2OCC(F)(F)F)cc1C(=O)NC(C)(C)c1ncon1` [Example 22, 5-[2-(4-fluorophenyl)-3-(methylcarbamoyl)-6-(2,2,2-trifluoroethoxy)furo[2,3-b]pyridin-5-yl]-2-(^2H3)methoxy-N-[2-(1,2,4-oxadiazol-3-yl)propan-2-yl]pyridine-3-carboxamide] showed an EC50 of 1.7 nM. With `[2H]C([2H])([2H])C(NC(=O)c1cc(-c2cc3c(C(=O)NC)c(-c4ccc(F)cc4)oc3nc2NCC(F)(F)F)cnc1OC)(c1ncon1)C([2H])([2H])[2H]` [Example 26, 5-[2-(4-fluorophenyl)-3-(methylcarbamoyl)-6-[(2,2,2-trifluoroethyl)amino]furo[2,3-b]pyridin-5-yl]-2-methoxy-N-[2-(1,2,4-oxadiazol-3-yl)(^2H6)propan-2-yl]pyridine-3-carboxamide] the EC50 was 6.26 nM. Compound `[2H]C([2H])([2H])Oc1ncc(-c2cc3c(C(=O)NC)c(-c4ccc(F)cc4)oc3nc2NCC(F)(F)F)cc1C(=O)NC(C)(C)c1ncon1` [Example 27, 5-[2-(4-fluorophenyl)-3-(methylcarbamoyl)-6-[(2,2,2-trifluoroethyl)amino]furo[2,3-b]pyridin-5-yl]-2-(^2H3)methoxy-N-[2-(1,2,4-oxadiazol-3-yl)propan-2-yl]pyridine-3-carboxamide] has an EC50 of 4.32 nM. `CNC(=O)c1c(-c2ccc(F)cc2)oc2nc(NCC(F)(F)F)c(-c3cnc(OC)c(C(=O)NC(C)(C)c4ncon4)c3)cc12` [Example 29, 5-[2-(4-fluorophenyl)-3-(methylcarbamoyl)-6-[(2,2,2-trifluoroethyl)amino]furo[2,3-b]pyridin-5-yl]-2-methoxy-N-[2-(1,2,4-oxadiazol-3-yl)propan-2-yl]pyridine-3-carboxamide] was tested, and the EC50 was 8.01 nM. `[2H]C([2H])([2H])Oc1ncc(-c2cc3c(C(=O)NC)c(-c4ccc(F)cc4)oc3nc2CCC(F)(F)F)cc1C(=O)NC(C)(c1ncon1)C1CC1` (stereo not shown) [Example 30, N-[1-cyclopropyl-1-(1,2,4-oxadiazol-3-yl)ethyl]-5-[2-(4-fluorophenyl)-3-(methylcarbamoyl)-6-(3,3,3-trifluoropropyl)furo[2,3-b]pyridin-5-yl]-2-(^2H3)methoxypyridine-3-carboxamide] gave an EC50 of 4.35 nM.
